Assay [1] has as its system human colon cancer Colo-205 cells. Description: MTT assay of cell growth, Colo-205. The assay is classed as cell-based. Here is the method: Two human colon cancer cell lines, Colo-205 (ATCC accession No. CCL-222) and HT-29 (ATCC accession No. HTB-38), were used in this study. Cells were treated with 0.2, 0.76, 1.52, 7.62, 15.24, 22.87, 30.49, 38.11, 45.73 or 53.35 μM 10-HCPT or CPT-11 for 1-3 days, and the relative number of the viable cells was determined by MTT assay as described below.
Cells were seeded in a 24-well cell culture cluster (Costar, Cambridge, Mass.) at a density of 1×10^6 cells per mL and cultured overnight prior to drug treatment. After 10-HCPT or CPT-11 treatment for 3 days, the medium was discarded and replaced with an equal volume (0.5 mL) of fresh medium containing 0.456 mg/mL 3-[4,5-dimethylthiazol-2-yl]-2,5-diphenyl-tetrazolium bromide (MTT; Sigma Chemical Company) and incubated for 2 hours at 37° C. in the dark. The medium was discarded, and cells were then combined with […] dimethyl sulfoxide (Sigma Chemical Company) to dissolve the formazan produced. Cell viability was determined according to the calorimetric comparison by reading optical density (OD) values from a microplate reader (Spectra Max 250; Spectra Diode Laboratories, CA) at an absorption wavelength of 570 nm.

The next assay concerns Colo-205 cells. The experiment in a line: DNA fragmentation assay. Conditions: various concentrations, 48 hrs, 1.5% agarose gel. The assay is classed as cell-based, human. From the text: Because apoptosis always takes place as a consequence of a cell cycle block, it is possible that 10-HCPT is able to cause cell death through apoptosis pathway. To verify this possibility, we first performed DNA fragmentation assay since DNA fragmentation is one characteristic of apoptosis.
The DNA of Colo-205 cells treated with various concentrations of 10-HCPT for 48 hrs was extracted and analyzed by 1.5% native agarose gel electrophoresis.

A further assay has as its system caspase-3. Description: DEVD-pNA cleavage activity (Caspase-3 Colorimetric Assay Kit). The assay is classed as cell-based, human. Conditions: Colo-205 lysates, 48 hrs treatment, vs drug-free control. On the procedure:
In addition, to further determine whether caspases participate in the propagation of apoptosis induced by 10-HCPT in Colo-205 cells, cell lysates from drug-treated cells were analyzed for the cleavage of the p-nitroaniline-tagged peptides N-Acetyl-Asp-Glu-Val-Aps-pNA (DEVD-pNA), which represent preferential substrates for caspase-3. Caspase activation leads to the release of pNA that can be monitored by absorbance measurements at 405 nm using a plate reader. Specifically, DEVD-pNA cleavage activity was measured using Caspase-3 Colorimetric Assay Kit (BioVision) according to the recommended protocols. 3×10^6 of 10-HCPT treated cells were harvested, resuspended in 50 μl of chilled cell lysis buffer and incubated on ice for 10 min before centrifugation (12,000 rpm for 3 min at 4° C.). The supernatant was collected and the total protein concentration of the supernatant was determined by Dc protein assay kit (Bio-Rad). Each assay reaction containing 100 μg of cell lysates, 50 μl of 2× reaction buffer supplemented with 10 mM DTT, and 5 μl of the 4 mM of DEVD-pNA (200 μM final concentration) was carried out at 37° C. for 1 hr. The formation of p-nitroanilide was detected at 405 nm in a microtiter plate reader.

The subject of assay [2] is caspases (IETD-pNA and LEHD-pNA substrates). Description: IETD-pNA and LEHD-pNA cleavage in cell lysates. The assay is classed as cell-based, human. The settings on record: Colo-205 cells.
The test system of a further assay is Colo-205 xenografts. Description: In vivo antiproliferation, Colo-205 xenografts in BALB/c-nu mice. Conditions: for tumor volume at day 24: control 300.5±22.3. On the procedure: We further examined whether 10-HCPT is effective in growth suppression in vivo after tumor formation. Colo-205 cells were transplanted into BALB/c-nu mice, and when the tumors were palpable (3-5 mm), the mice were treated either with vehicle control or 10-HCPT.
The in vivo experiment was carried out with ethical committee approval and met the standards required by the Guiding Principles in the Use of Animals in Toxicology, which were adopted by the Society of Toxicology in 1989. The BALB/c-nu mice were obtained from National Laboratory Animal Center of National Applied Research Laboratories (Taipei, Taiwan) and housed in a laminar flow room under sterilized conditions with the temperature being maintained at 25±2° C. and the light controlled at 12 h light and 12 h dark cycle. The Colo 205 cells were harvested and resuspended in serum free RPMI-1640 medium. Cells were adjusted to 1×10^7 cells/mL, and transplanted subcutaneously on the flank regions of the mice. Each experimental group included six to seven mice bearing tumors.
10-HCPT was dissolved in propylene glycol and treatment began when the tumor size reached 3-5 mm. 10-HCPT was administered via p.o. once per two or four days at doses of 1-7.5 mg/kg (volume of injection: 0.1 mL/20 g of body weight), respectively. The control group received propylene glycol vehicle once per two days. Tumor size and body weight were monitored twice a week throughout the experiment. The tumor size was measured using a vernier caliper. Tumor volume (V) was calculated according to the formula: V (mm^3)=0.4AB^2, where A and B are the longest diameter and the shortest diameter, respectively. At the end of experiment, all mice were sacrificed by CO2 gas. Tumors, livers, kidneys, and lungs were collected, fixed, embedded and stained with hematoxylin and eosin for pathological analysis.

The subject of another assay is histone H1 and H3. Conditions: murine hepatoma cells; cited from earlier work.
The test system of another assay is human Hep G2 cells. The settings on record: cited from earlier work.

`CC[C@@]1(O)C(=O)OCc2c1cc1n(c2=O)Cc2cc3cc(O)ccc3nc2-1` [10-HCPT, 10-hydroxy-camptothecin]: in assay [1] (Colo-205, day 2 and day 3, MTT, vs vehicle controls), the “concentration at which significant growth inhibition was observed” value is 0.2 µM. Moreover, the “concentration at which complete growth inhibition was observed” value in assay [1] (Colo-205, days 1-3, MTT) worked out at 1 µM. In addition, the DNA ladders entry with Colo-205 cells is on record as “DNA ladders were detected”. The “absorbance with the DEVD-pNA substrate” value in the assay with caspase-3 is on record as “clearly elevated”. The “caspase activation with IETD-pNA substrate” value in assay [2] is recorded as “only stimulated little caspase activations”. For the same compound, in assay [2], the “caspase activation with LEHD-pNA substrate” value was “only stimulated little caspase activations”. For the same compound, the “tumor volume at day 24” value with Colo-205 xenografts (2.5 mg/kg/2 days p.o., P<0.01) came out at 85.9±12.3 mm^3; in the assay with Colo-205 xenografts (2.5 mg/kg/4 days p.o.), 273.1±33.7 mm^3; in the assay on Colo-205 xenografts (5 mg/kg/2 days p.o., P<0.01), 60.8±15.4 mm^3; in the assay on Colo-205 xenografts (5 mg/kg/4 days p.o., p<0.05), 228.9±45.3 mm^3; in the assay with Colo-205 xenografts (7.5 mg/kg/2 days p.o., P<0.01), 7.2±2.8 mm^3; in the assay on Colo-205 xenografts (7.5 mg/kg/4 days p.o., p<0.05) it was 182.9±43.9 mm^3. Further, in the assay with Colo-205 xenografts (oral, 2.5-7.5 mg/kg/2 days, nude mouse xenografts), the tumor growth suppression result is “obviously observed”. Also, in the assay with histone H1 and H3, the “effect on phosphorylation of histone H1 and H3” value is reported as “inhibitory effect”. In addition, the effect on differentiation result with human Hep G2 cells is recorded as “differentiation inducing effect”.

(Values after US20080039485A1, “LOW-DOSE-LONG-TERM PHARMACEUTICAL COMPOSITION COMPRISING CAMPTOTHECIN DERIVATIVES FOR THE TREATMENT OF CANCERS” (TARGETGEN BIOTECHNOLOGY CO., LTD., priority 2006, published 2008).)
